Laboratory results as given in patent US5696263A, “Antiviral acyclic phosphonomethoxyalkylsubstituted alkenyl and alkynyl purine and pyrimidine derivatives” (Institute of Organic Chemistry and Biochemistry of the …, priority 1994, dated 1997).
pEC50: −log10 of the molar value. Like-named read-outs stand apart in the source and are kept apart here.

Assays:
[1] = XTT assay, cellular toxicity in uninfected CEM-SS cells; format: cell-based; conditions: human, cem-ss cells
Protocol: (§1) Compounds were evaluated for activity against human immunodeficiency virus (HIV RF strain obtained from Luc Montagnier, Institut Pasteur, Paris, France) in CEM-SS cells (P. L. Nara, et al., in AIDS Res. Human. Retroviruses, 1987, 3, 283-302) using the XTT assay described by O. S. Weislow, et al., in J. Natl. Cancer Instit., 1989, 81, 577-586. CEM-SS cells were obtained from Owen Weislow at the National Cancer Institute. Cells were exposed to HIV and cultured in microtiter plates in the presence of test compounds at concentrations of 0.32, 1, 3.16, 10, 31.6, 100, 316 and 1000 um. On day six post-infection, the antiviral effect was measured using the XTT assay in which an optical density (OD) reading is obtained at each drug concentration. The optical density reading is proportional to the number of viable cells. The relative optical density values were derived by dividing the sample observed optical density by the value obtained for the control. Assays run in infected cells show the antiviral effect of the test compounds, where an increase in the number of viable cells (higher OD reading) reflects the protective, antiviral activity of the compound. Assays run in uninfected cells provide a measure of cellular toxicity.
(§2) The antiviral effect is also expressed (see Table 1) as the concentration of compound which increases the number of viable cells in infected cultures to 50%, to that of the untreated, uninfected control cultures (ED50). The cellular toxicity is expressed as the concentration of compound which reduces the number of viable cells to 50%, to that of the untreated control (TD50). The selectivity index (SI) is the ratio of TD50 to ED50.
(§3) The anti-HIV activity and cellular toxicity of the test compounds are plotted in FIGS. 1-7 as a function of relative optical density versus increasing log concentrations of the test compounds (XTT assay). FIGS. 1-7 visually show the results of the relative anti-HIV activity of the test compounds on infected cells (--.circle-solid.--) and the cellular toxicity of the same test compound on uninfected cells (--.rect-solid.--).
(§4) ^b Toxic Dose 50: In uninfected cells, concentration of compound whic
(§5) results in a 50% decrease of viable cells.

[2] = tested on: human immunodeficiency virus (HIV RF strain) in CEM-SS cells; assay: XTT assay, anti-HIV RF activity in infected CEM-SS cells, six days post infection; format: cell-based; conditions: for SI (Selectivity Index: Ratio of TD50 to ED50): HIV RF; for SI (Selectivity Index: Ratio of TD50 to ED50) / pEC50: CEM-SS cells; for pEC50: Human immunodeficiency virus 1, CEM-SS, 144 h, HIV RF strain, XTT assay, six days post infection, read-out: ED50 (the source's name); for anti-HIV potency and selectivity as compared to the other compounds: data in Table 1; for cell protection against HIV: over a broad concentration range
Protocol: as §1, §2, §3
Another estimate of the effectiveness of a compound for use against HIV in the prevention and/or treatment of AIDS is a selectivity index (an in vitro "therapeutic index"), the ratio of the toxic dose 50 to the effective dose 50. The selectivity index (SI) for (RS), (R)- and (S)-2'-vinyl-PMEG and (RS), (R), (S), -2'-azidomethyl-PMEG of the instant invention and for the comparison compound PMEG are shown in Table 1.
Anti-HIV RF Activity in CEM-Cells Evaluated by XTT Assay
Six Days Post Infection
(§6) ^a Effective Dose 50: In infected cells, concentration of compound
(§7) which results in an increase in the number of viable cells to 50% to that
^c Selectivity Index: Ratio of TD50 to ED50.

[3] = tested on: CEM-SS cells; assay: XTT assay, cellular toxicity in uninfected CEM-SS cells; format: cell-based
Protocol: as §1, §2, §3, §4, §5

[4] = cell growth inhibition assay in CEM-SS cells; format: cell-based; conditions: human, cem-ss cells; 50 percent decrease in cell count vs control at day three (72 hours)
Protocol: (§8) The cytotoxicity of PMEG, (R)2'-vinyl-PMEG, (S)-2'-vinyl-PMEG and (R)-2'-azidomethyl-PMEG was also determined by the cell growth inhibition assay in CEM-SS cells.
(§9) *CC50 is the concentration of drug that causes a 50 percent decrease in
(§10) cell count as compared to the control at day three (72 hours).
(§11) 1. Choose proper range of the concentrations of the drug to be evaluated.
(§12) 2. Prepare the stock solutions of drugs in RPMI 1640 medium at 10× of the highest concentration needed in cell culture
(§13) 3. Make serial dilution of the 10× stock solutions with RPMI 1640 as needed, usually four different concentrations are used for each drug.
(§14) 4. Prepare CEM cell suspension at @5×10^4 cells/ml concentration
(§15) 5. To each 18 ml CEM cell suspension add 2 ml of properly diluted drug solution (from step 2 and 3) separately and mix well.
(§16) 6. For cell control, 2 ml of RPMI 1640 is added in place of the drug solutions.
(§17) 7. Two ml of the solutions from step 5 and 6 are dispensed in to the wells of 24-well plate as shown in the following diagram [drawing 14] 8. At time zero, cells in 4 wells from the control (no drug added) are counted
(§18) 9. At 24, 48, 72 and 96 hr post drug addition, both drug treated and control cells are counted
(§19) 10. All assay are done in duplicate, two 24-well plates are set up for each drug
(§20) 11. Cell counts obtained from drug treated cultures are compared to those from control cultures.
(§21) 12. The concentration of drug that causes a 50 percent of decrease of cell number as compared to the control at day three (72 hr) is assigned as the CC50 value of the drug.

[5] = tested on: CEM-SS cells; assay: cell growth inhibition assay in CEM-SS cells; format: cell-based; conditions: values of Table 2
Protocol: as §8, §9, §10, §11, §12, §13, §14, §15, §16, §17, §18, §19, §20, §21

[6] = tested on: CEM-SS cells; assay: XTT assay, cellular toxicity in uninfected CEM-SS cells; format: cell-based; conditions: compounds evaluated with HIV LAV BRU strain (footnote e), 8640 min, read-out: TD50 (the source's name)
[7] = tested on: human immunodeficiency virus LA BRU strain; assay: XTT assay, anti-HIV activity with LAV BRU strain; format: cell-based; conditions: HIV LAV BRU strain (footnote e), read-out: ED50 (the source's name)
Protocol: as §1, §2, §6, §7
^e The compounds were evaluated using human immunodeficiency virus LA
BRU strain obtained from Luc Montagnier, Institut Pasteur, Paris, France.

[8] = tested on: human immunodeficiency virus HTLVIIIB strain and MT2 cells; assay: anti-HIV activity, HTLVIIIB strain in MT2 cells (Southern Research Institute); format: cell-based; conditions: Southern Research Institute (footnote g), read-out: ED50 (the source's name)
Protocol: as §6, §7
(§22) ^g The compound was evaluated by Southern Research Institute using
(§23) human immunodeficiency virus HTLVIIIB strain and MT2 cells (S. Harada, et

[9] = tested on: MT2 cells; assay: cellular toxicity in uninfected MT2 cells (Southern Research Institute); format: cell-based; conditions: Southern Research Institute (footnote g), read-out: TD50 (the source's name)
Protocol: as §4, §5, §22, §23

[10] = tested on: murine leukemia virus; conditions: experimental animals; cited from earlier work
[11] = tested on: Moloney sarcoma virus; conditions: experimental animals; cited from earlier work
[12] = tested on: HIV; conditions: in tissue cultures; cited from earlier work
[13] = tested on: simian immunodeficiency virus (SIV); conditions: experimental animals; cited from earlier work

## [N-]=[N+]=NCC(Cn1cnc2c(=O)[nH]c(N)nc21)OCP(=O)(O)O (racemic) [(R,S)-2'-azidomethyl-PMEG, (RS)-9-[3-azido-2-(phosphonomethoxy)propyl]guanine]
[1]
  CC50 at 144 h: > 1000 µM
[2]
  SI (Selectivity Index: Ratio of TD50 to ED50): > 125
  pEC50: 5.10

## C=CC(Cn1cnc2c(=O)[nH]c(N)nc21)OCP(=O)(O)O (racemic) [(R,S)-2'vinyl-PMEG, (RS)-9-[2-(phosphonomethoxy)-3-butenyl]guanine]
[1]
  CC50 at 144 h: > 1000 µM
[2]
  SI (Selectivity Index: Ratio of TD50 to ED50): > 51
  pEC50: 4.71

## [N-]=[N+]=NC[C@@H](Cn1cnc2c(O)nc(N)nc21)OCP(=O)(O)O [(R)-2'-azidomethyl-PMEG, (R)-9-[3-azido-2-(phosphonomethoxy)propyl]guanine]
[1]
  CC50 at 144 h: > 1000 µM
[3]
  observable cytotoxicity: no observable cytotoxicity
[2]
  SI (Selectivity Index: Ratio of TD50 to ED50): > 200
  pEC50: 5.30
  anti-HIV potency and selectivity as compared to the other compounds: potent and selective anti-HIV agents
  cell protection against HIV: cell protection against HIV over a broad concentration
[4]
  CC50 at 72 h: 1400 µM
[5]
  toxicity in CEM-SS cells when compared to PMEG: relatively non-toxic

## C=C[C@H](Cn1cnc2c(O)nc(N)nc21)OCP(=O)(O)O [(R)-2'-vinyl-PMEG, (R)-9-[2-(phosphonomethoxy)-3-butenyl]guanine]
[1]
  CC50 at 144 h: > 1000 µM
[3]
  observable cytotoxicity: no observable cytotoxicity
[2]; concentration range of 5 to 100 μM, FIG. 1
  protection from the human immunodeficiency virus in CEM-SS cells: complete protection
[2]
  anti-HIV potency and selectivity as compared to the other compounds: potent and selective anti-HIV agents
  cell protection against HIV: cell protection against HIV over a broad concentration
[4]
  CC50 at 72 h: 1600 µM
[5]
  toxicity in CEM-SS cells when compared to PMEG: relatively non-toxic

## [N-]=[N+]=NCC[C@@H](Cn1ccc(N)nc1=O)OCP(=O)(O)O [(S)-2'-azidoethyl-PMEC, (S)-9-[4-azido-2-(phosphonomethoxy)butyl]cytosine]
[6]
  CC50: > 500 µM
[7]; 8640 min
  pEC50: < 3.30

## [N-]=[N+]=NCC[C@@H](Cn1cnc2c(O)nc(N)nc21)OCP(=O)(O)O [(S)-2'-azidoethyl-PMEG, (S)-9-[4-azido-2-(phosphonomethoxy)butyl]guanine]
[1]
  CC50 at 144 h: > 500 µM
[7]; Human immunodeficiency virus 1, CEM-SS, 144 h
  pEC50: < 3.30

## [N-]=[N+]=NC[C@H](Cn1ccc(N)nc1=O)OCP(=O)(O)O [(S)-2'-azidomethyl-PMEC, (S)-9-[3-azido-2-(phosphonomethoxy)propyl]cytosine]
[6]
  CC50: > 500 µM
[7]; 8640 min
  pEC50: < 3.30

## [N-]=[N+]=NC[C@H](Cn1cnc2c(=O)[nH]c(N)nc21)OCP(=O)(O)O [(S)-2'-azidomethyl-PMEG, (S)-9-[3-azido-2-(phosphonomethoxy)propyl]guanine]
[1]
  CC50 at 144 h: > 1000 µM
[2]
  SI (Selectivity Index: Ratio of TD50 to ED50): > 20
  pEC50: 4.29

## Cc1cn(C[C@@H](CN=[N+]=[N-])OCP(=O)(O)O)c(=O)[nH]c1=O [(S)-2'-azidomethyl-PMET, (S)-9-[3-azido-2-(phosphonomethoxy)propyl]thymine]
[8]
  pEC50: < 3.30
[9]
  CC50: > 500 µM

## C=C[C@@H](Cn1ccc(N)nc1=O)OCP(=O)(O)O [(S)-2'-vinyl-PMEC, (S)-9-[2-(phosphonomethoxy)-3-butenyl]cytosine]
[6]
  CC50: > 500 µM
[7]; 8640 min
  pEC50: < 3.30

## C=C[C@@H](Cn1cnc2c(O)nc(N)nc21)OCP(=O)(O)O [(S)-2'-vinyl-PMEG, (S)-9-[2-(phosphonomethoxy)-3-butenyl]guanine]
[2]; at 100 μM, FIG. 2
  protection from HIV in CEM-SS cells: complete protection
[4]
  CC50 at 72 h: 1600 µM
[5]
  toxicity in CEM-SS cells when compared to PMEG: relatively non-toxic

## Nc1ncnc2c1ncn2CCOCP(=O)(O)O [PMEA]
[10]
  effect on murine leukemia virus: proven its effect
[11]
  effect on Moloney sarcoma virus: proven its effect
[12]
  effect on HIV: proven its effect
[13]
  effect on simian immunodeficiency virus (SIV): proven its effect

## Nc1nc2c(ncn2CCOCP(=O)(O)O)c(=O)[nH]1 [PMEG, 9-[2-(phosphonomethoxy)ethyl]guanine, reference compound]
[1]
  CC50 at 144 h: 15 µM
[3]
  cellular toxicity: cellular toxicity of PMEG prevents protection from the virus
[2]; FIG. 7
  anti-HIV effect in CEM-SS cells: some anti-HIV effect
[2]
  SI (Selectivity Index: Ratio of TD50 to ED50): 30
  pEC50: 6.70
[4]
  CC50 at 72 h: 2.4 µM
